In assay [1] the test system is cervical epithelioid carcinoma (HeLa). Kind of assay: MTT cytotoxicity assay, HeLa. Format: cell-based, human. To be noted: 72 h. How it is done: (§1) Example 2 describes the in vitro cytotoxicity, which is indicative of the induction of cell death and/or inhibition of cellular proliferation of cancer cells, of the cyclometalated N-heterocyclic complexes on cervical epithelioid carcinoma, hepatocellular carcinoma, leukemia, nasopharyngeal carcinoma, breast carcinoma, melanoma, and lung carcinoma.
(§2) By means of MTT assays, the cytotoxic properties of cyclometalated N-heterocyclic carbene complexes (1-25) were determined toward some established human cancer cell lines including hepatocellular carcinoma (HepG2), cervical epithelioid carcinoma (HeLa), epithelial carcinoma (KB and its camptothecin-resistant cell line KB100), non-small cell lung carcinoma (NCI-H460), leukemia (HL-60), breast carcinoma (MDA-MB-231), melanoma (B16) and nasopharyngeal carcinoma (SUNE1). […] In terms of the IC50 values, they display similar cytotoxic properties compared to the reference complexes cisplatin and camptothecin (CPT).

The test system of assay [2] is breast carcinoma (MDA-MB-231). In words: MTT cytotoxicity assay, MDA-MB-231. Conditions: 72 h, MBA-MD-231. Format: cell-based, human. The protocol:
as §1, §2
A general note: Tetrazolium assays rely on reduction of a dye to a coloured formazan, in cell work by metabolically active cells.

For assay [3], the system named is epithelial carcinoma (KB). Kind of assay: MTT cytotoxicity assay, KB. Format: cell-based, human. Conditions: 72 h. How it is done: as §1, §2
For assay [4], the system named is nasopharyngeal carcinoma (SUNE1). Kind of assay: MTT cytotoxicity assay, SUNE1. Format: cell-based, human. To be noted: 72 h. The protocol: as §1, §2
In assay [5] the test system is camptothecin-resistant cell line KB100. Kind of assay: MTT cytotoxicity assay, KB100. Format: cell-based, human. Conditions: 72 h. The protocol:
as §1, §2

Another assay has as its system leukemia (HL-60). Kind of assay: MTT cytotoxicity assay, HL-60. Format: cell-based, human. Conditions: 72 h. The protocol: as §1, §2
Assay [6] concerns hepatocellular carcinoma (HepG2). Kind of assay: MTT cytotoxicity assay, HepG2. Format: cell-based, human. Conditions: 72 h. How it is done: as §1, §2
Assay [7] has as its system lung fibroblast cells (CCD-19Lu). In words: MTT cytotoxicity to non-cancerous cells, CCD-19Lu. Format: cell-based, human. To be noted: 72 h, non-cancerous lung fibroblast cells CCD-19Lu. How it is done: as §2
Using lung fibroblast cells (CCD-19Lu), the cytotoxicity of the complexes to non-cancerous cells was also examined.

In assay [8] the test system is non-small cell lung carcinoma (NCI-H460). In words: MTT cytotoxicity assay, NCI-H460. Format: cell-based, human. Conditions: 72 h. How it is done: as §1, §2
For a further assay, the system named is melanoma (B16). Kind of assay: MTT cytotoxicity assay, B16. Format: cell-based, mouse. To be noted: 72 h. The protocol:
as §1, §2

In general, IC50 refers to the concentration that inhibits the measured activity by half. Higher therefore signals lower potency.

Take `CCCn1cc[n+](CCC)[c]1[Pt-2]12[c]3ccccc3-c3cccc([n+]31)-c1cccc[n+]12.F[P-](F)(F)(F)(F)F` (stereo not drawn) [Complex 13]: the IC50 was found to be 0.05 µM in [1]; 0.28 µM in [2]; 0.14 µM in assay [3]; 0.16 µM in assay [4]; 0.13 µM in assay [5]; 0.56 µM with leukemia (HL-60). For the same molecule, the IC50 in [6] was found to be 1.1 µM; in [7] it was 12 µM; in assay [8] it was 0.18 µM; in the assay with melanoma (B16) it was 0.42 µM.

As for `CC(C)c1cc(C(C)C)c(-n2cc[n+](-c3c(C(C)C)cc(C(C)C)cc3C(C)C)[c]2[Au-]23[c]4ccccc4-c4cccc([n+]42)-c2cccc[c]23)c(C(C)C)c1.O=S(=O)([O-])C(F)(F)F` [Complex 4], the IC50 in [1] turned out to be 2.7 µM; in assay [2] it was 3.7 µM; in [3], 3.6 µM; in [4] it was 5.5 µM; in assay [5], 4.5 µM; in the assay with leukemia (HL-60), 1.1 µM. Further, the IC50 in [6] worked out at 1.9 µM; in [7], 11 µM; in [8], 6.2 µM; in the assay with melanoma (B16) it was 7.7 µM.

With `Cc1cc(C)c(-[n+]2ccn(CCCO)[c]2[Pt-2]23[c]4ccccc4-c4cccc([n+]42)-c2cccc[n+]23)c(C)c1.F[P-](F)(F)(F)(F)F` (stereo not drawn) [Complex 23], the half-maximal inhibitory concentration (IC50) in assay [1] was 0.48 µM; in assay [4], 0.94 µM; in assay [6], 0.78 µM; in [7], 7.5 µM.

For `N.N.[Cl][Pt][Cl]` [cisplatin, reference compound], the IC50 was 14.9 µM in [1], 2.4 µM in assay [4], 14.6 µM in assay [6] and over 100 µM in [7].

As to `CCCCn1cc[n+](C[n+]2ccn(CCCC)[c]2[Au-]23[c]4cc5ccccc5cc4-c4cc(-c5ccc(OC)cc5)cc([n+]42)-c2cc4ccccc4c[c]23)[c]1[Au-]12[c]3cc4ccccc4cc3-c3cc(-c4ccc(OC)cc4)cc([n+]31)-c1cc3ccccc3c[c]12.O=S(=O)([O-])C(F)(F)F.O=S(=O)([O-])C(F)(F)F` [Complex 9], the IC50 amounted to 7.2 µM in assay [1]; 6.2 µM in [2]; 5 µM in [3]; 4.5 µM in assay [4]; 3.8 µM in assay [5]; 7.1 µM in the assay with leukemia (HL-60). Besides, the IC50 was 4.5 µM in [6], 9.9 µM in assay [7], 5.5 µM in assay [8] and 9.1 µM in the assay with melanoma (B16).

Take `CCCCn1cc[n+](CCO)[c]1[Pt-2]12[c]3ccccc3-c3cccc([n+]31)-c1cc3ccccc3c[n+]12.F[P-](F)(F)(F)(F)F` (stereo not drawn) [Complex 25]: the IC50 in assay [1] turned out to be 0.45 µM; in [4] it was 0.88 µM; in assay [6], 0.68 µM; in [7], 11 µM.

Consider `CCCn1cc[n+](CCC)[c]1[Pt-2]12[c]3ccccc3-c3cccc([n+]31)-c1cc3ccccc3c[n+]12.F[P-](F)(F)(F)(F)F` (stereo not drawn) [Complex 24], for which the IC50 stood at 0.55 µM in assay [1], 0.71 µM in assay [4], 0.88 µM in [6] and 12 µM in assay [7].

With `CCCC[n+]1ccn(Cn2cc[n+](CCCC)[c]2[Pt-2]23[c]4ccccc4-c4cccc([n+]42)-c2cccc[n+]23)[c]1[Pt-2]12[c]3ccccc3-c3cccc([n+]31)-c1cccc[n+]12.F[P-](F)(F)(F)(F)F.F[P-](F)(F)(F)(F)F` (stereo not drawn) [Complex 15], the IC50 in assay [1] came out at 8 µM; in assay [4] it was 6.4 µM; in [6], 9.4 µM; in assay [7], 40 µM.

As to `CCCC[n+]1ccn(CCCn2cc[n+](CCCC)[c]2[Pt-2]23[c]4ccccc4-c4cccc([n+]42)-c2cccc[n+]23)[c]1[Pt-2]12[c]3ccccc3-c3cccc([n+]31)-c1cccc[n+]12.F[P-](F)(F)(F)(F)F.F[P-](F)(F)(F)(F)F` (stereo not drawn) [Complex 16], the IC50 was determined as 3.9 µM in assay [1], 5.6 µM in assay [4], 7.1 µM in [6] and 27 µM in assay [7].
